Consider two compounds from US20200155566A1, “THERAPEUTIC COMBINATION OF A THIRD GENERATION EGFR TYROSINE KINASE INHIBITOR AND A CYCLIN D KINASE INHIBITOR” (Novartis AG, priority 2017, published 2020).

For data set [1], the system named is phospho-EGFR (EGFR Y1068). Description: Western blot of phospho-EGFR after 72 hours of treatment. Type of data set: cell-based. The settings on record: PC-14, NCI-H1975, HCC827, HCC4006, immunoblot. For orientation: Immunoblotting shows a protein as a band on a membrane.
Experimental: NCI-H1975 (having mutations L858R, T790M), PC-14 (having mutations ex 19 del or exon 19 deletion), HCC827 (having mutation exl9del) and HCC4006 (having mutation exl9del) cells were cultured in RPMI-1640 growth medium (ATCC, catalog number 20-2001), supplemented with 10% fetal bovine serum (GIBCO, catalog number F4135) at 37° C. in a humidified 5% CO2 incubator. For the mechanistic studies, cells were seeded into tissue culture treated 6-well plates (Corning 3506) at a densities of 400k, 400k, 100K and 50k cells per well for HCC827, NCI-H1975, HCC4006 and PC-9 (having mutation exon 19 deletion) respectively, and allowed to attach overnight. […] After 72 hours of treatment, cells were lysed in 100 μl per well RIPA buffer (Sigma R0278) containing protease inhibitor cocktail (Sigma P8340), phosphatase inhibitor cocktail 2(Sigma P5726) and phosphatase inhibitor cocktail 3 (Sigma P0044). Cells were lysed on ice for 10 minutes, with scraping using a Cell Lifter (Corning 3008). Lysates were then micro-centrifuged at 14000rpm in an Eppendorf 5417R micro-centrifuge at 4° C.
In data set [2] the test system is NCI-H1975 tumors (EGFR L858R, T790M). Kind of data set: In vivo efficacy study, NCI-H1975 xenograft tumor volume. Also on record: species or system mouse. The settings on record: Compound A 10 or 30 mg/kg p.o. qd, Compound B 80 mg/kg free base p.o. qd. Here is the method: The tumor cells were cultured in tissue culture flasks in a humidified incubator at 37° C., in an atmosphere of 5% CO2 and 95% air.

Data set [3] concerns EGFR mutant NSCLC cell lines (PC9, HCC827, HCC4006, MGH707). Kind of data set: Long-term viability study (confluence by incucyte zoom, four weeks). Type of data set: cell-based. Here is the method:
PC9 (3,000/well), HCC827 (10,000/well), HCC4006 (5000/well), and MGH707 (5000/well) cells were plated into 96-well plates and the following day treated with EGF816 (300nM) either alone or in combination with LEE011 (1000 nM) for four weeks. Drug was refreshed twice per week. Cell confluence was used as a surrogate for cell number and was measured by an incucyte zoom (Essen Biosciences) at the initiation of treatment and then twice (2x) per week thereafter.

Data set [4] concerns Epidermal Growth Factor Receptor (EGFR). The conditions noted are these: L858R, exl9del, T790M versus WT; cited from earlier work.
In the next data set the test system is EGFR-mutant NSCLC. The settings on record: 100 mg daily versus 150 mg daily, previous study; cited from earlier work.
The subject of data set [5] is advanced non-small cell lung cancer (NSCLC) harboring T790M. The settings on record: patients with advanced NSCLC harboring T790M; cited from earlier work.
The test system of data set [6] is EGFR mutant (L858R, exl9del and T790M) cancer models. The settings on record: cited from earlier work.
In another data set the test system is CYP3A4/5. The conditions noted are these: cited from earlier work.
The conditions of data set [7]: single agent ribociclib, 3 weeks on/1 week off; cited from earlier work.
The next data set deals with phospho-Rb (Rb S807/811). Kind of data set: Western blot of phospho-Rb after 72 hours of treatment. Format: cell-based. The conditions noted are these: PC-14, NCI-H1975, HCC827, HCC4006, immunoblot. Here is the method: Several EGFR mutant NSCLC cell lines were treated for 72 hours with the EGF816 and LEE011 combination at different concentrations as follows. NCI-H1975 (having mutations L858R, T790M), PC-14 (having mutations ex 19 del or exon 19 deletion), HCC827 (having mutation exl9del) and HCC4006 (having mutation exl9del) cells were cultured in RPMI-1640 growth medium (ATCC, catalog number 20-2001), supplemented with 10% fetal bovine serum (GIBCO, catalog number F4135) at 37° C. in a humidified 5% CO2 incubator. For the mechanistic studies, cells were seeded into tissue culture treated 6-well plates (Corning 3506) at a densities of 400k, 400k, 100K and 50k cells per well for HCC827, NCI-H1975, HCC4006 and PC-9 (having mutation exon 19 deletion) respectively, and allowed to attach overnight. The cells were then exposed to a 3×3 matrix combination treatment of EGF816 and LEE011, at concentrations of 0, 0.12, 0.333 μM EGF816 vs. 0, 0.312, 2.5 μM LEE011. […]
Lysate' total protein content was determined by BCA assay (Pierce 23227), following the manufacturer's instructions, and samples were prepared for a western blot using Invitrogen LDS Sample Buffer (NP0007)) containing 200 mM DTT, boiled at 95° C. for 10 minutes, micro-centrifuged and 20 μg total protein loaded per well. […]

For the compound `Cc1cc(C(=O)Nc2nc3cccc(Cl)c3n2[C@@H]2CCCCN(C(=O)/C=C/CN(C)C)C2)ccn1` [EGF816, (R,E)-N-(7-chloro-1-(1-(4-(dimethylamino)but-2-enoyl)azepan-3-yl)-1H-benzo[d]imidazol-2-yl)-2-methylisonicotinamide], in data set [1], the “EGFR phosphorylation (EGFR Y1068)” value is listed as “inhibited in a dose dependent manner across all cell lines”. In addition, the “tumor volume changes over time” value in [2] is on record as “significant tumor regressions, which increased at higher doses”. The “regrowth of cells (confluence as surrogate for cell number)” value in data set [3] (EGF816 300nM alone or with LEE011 1000 nM) is listed as “begin to slowly regrow”. In [3] (EGF816 300nM, PC9, HCC827, HCC4006, MGH707), the “apoptosis and cell cycle arrest” value was “varying degrees of apoptosis and cell cycle arrest”. Also, the “selectivity for mutant EGFR over wild type EGFR” value in data set [4] is “selectively inhibits activating and acquired resistance mutants (L858R, exl9del and T790M), while sparing wild type (WT) EGFR”. For the same compound, in the data set on EGFR-mutant NSCLC, the “rates of rash and diarrhoea” value is “lower rates of rash and diarrhoea were observed at 100 mg daily”. Besides, in data set [5], the “antitumor activity in patients” value is listed as “durable antitumor activity”. Moreover, the “tolerability, body weight” value in [6] (efficacious doses, xenograft models) is “well tolerated with no body weight loss observed at efficacious doses”. For the same compound, the “anti-tumor efficacy in xenograft models” value in data set [6] (several xenograft models) was “Dose-dependent anti-tumor efficacy”.

For the compound `CN(C)C(=O)c1cc2cnc(Nc3ccc(N4CCNCC4)cn3)nc2n1C1CCCC1` [LEE011, 7-cyclopentyl-2-(5-piperazin-1-yl-pyridin-2-ylamino)-7H-pyrrolo[2,3-d]pyrimidine-6-carboxylic acid dimethylamide], the CYP3A4/5 inhibition entry in the data set with CYP3A4/5 was “inhibitor of CYP3A4/5”. The “tumor volume changes over time” value in data set [2] was “no single agent activity”. Moreover, the MTD in data set [7] is 900 mg qd. The “Rb phosphorylation (Rb S807/811)” value in the data set on phospho-Rb (Rb S807/811) is on record as “inhibited by LEE011 single agent in 3 out of 4 cell lines”.
